Laboratory results: US10738028B2, “Spiro three-membered ring, spiro five-membered ring peptide deformylase inhibitor and use thereof in antibacteria and anti-tumor” (priority 2016, dated 2020)
In brackets after ≈: the same amount, converted by molar mass. Like-named read-outs stand apart in the source and are kept apart here.

Key:
[1] = system: Enterococcus faecalis (EFA); assay: MIC, two-fold agar dilution (CLSI), clinical isolates; format: cell-based
Summary of the method: (§1)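 MIC values come from two-fold agar dilution run per CLSI antimicrobial susceptibility testing procedure.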

[2] = system: Escherichia coli (including ESBLs, non-ESBLs); assay: as above; format: cell-based
Summary of the method: as §1

[3] = system: methicillin-resistant Staphylococcus aureus (MRSA); assay: as above; format: cell-based
Summary of the method: as §1

[4] = system: methicillin-resistant Staphylococcus epidermidis (MRSE); assay: as above; format: cell-based
Summary of the method: as §1

[5] = system: methicillin-sensitive Staphylococcus aureus (MSSA); assay: as above; format: cell-based
Summary of the method: as §1

[6] = system: methicillin-sensitive Staphylococcus epidermidis (MSSE); assay: as above; format: cell-based
Summary of the method: as §1

[7] = system: HCT-116 colorectal cancer cell line; assay: CCK-8 proliferation inhibition; format: cell-based; details: Homo sapiens, HCT-116, 72 h, read-out: HCT116 inhibition rate/%
Summary of the method: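 HCT-116 cells, seeded at 2000 cells/well in McCoy's 5A with 10% newborn bovine serum, were cultured overnight at 37° C., 5% CO2, then exposed to compound dilutions in medium for 72 hours. Viability was read with 1:10 diluted CCK-8; controls received 1‰ DMSO.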

[8] = system: methemoglobin in blood samples of three healthy volunteers; assay: Toxicity on methemoglobin in vitro (whole blood with S9 and NADPH, absorbance at 630 nm); format: cell-based, human; details: for MetHb % (n = 3): 500 μM compound, whole blood + S9 + NADPH, 5 hours at 37° C.; for probability of methemoglobin formation in blood compared with the control drugs LBM415 and GSK1322322: toxicity test in vitro, in words
Description: Because PDF inhibitors such as LBM415 and GSK1322322 can produce active species such as aromatic hydroxylamine and aromatic hydrazines in metabolic process, and cause human methemoglobinemia. To this end, continuous wavelength method was adopted in this invention to scan the absorption spectrum of blood samples in the wavelength range of 500 to 700 nm in the ultraviolet-visible spectrophotometer, and the contents of methemoglobin in blood samples of three healthy volunteers were calculated, after being effected by the synthesized compounds.
Experimental materials: Nicotinamide adenine dinucleotide phosphate (NADPH) reduction system: glucose-6-disodium phosphate, nicotinamide adenine dinucleoside phosphate and glucose-6-phosphate dehydrogenase (purchased from Shanghai yuanye Bio-Technology Co., Ltd) were added to 1 mL of phosphate buffer solution (PBS, pH 7.4), and the mixture was shaked in a shaker type water bath at 37° C. for 10 min, and then cooled to 0° C. Mixed human hepatocytes fraction S9 was purchased from Xenotech (20 mg S9 protein/1 mL suspension medium). Compounds were prepared to stock solution at a concentration of 50 mM, which was stored at −20° C. for use. Dapsone was used as positive control experimental reagent, which was purchased from Sigma Aldrich. 1% w/v triton X-100 was self-prepared. Blood samples were collected using Vacutainer tubes containing EDTA anticoagulants (BD, Franklin Lakes, USA), which were sampled from three healthy volunteers and used immediately after sampling.
Preparation of incubation system for blood samples and drugs: 250 μL of incubation system was consist of 220 μL of whole blood, 25 μL of S9 (final concentration: 2 mg S9 protein/mL incubation solution), 2.5 μL of NADPH form system (final concentration: 10 mM G-6-P, 1 mM NADP, 7.5 Units/mL) and 2.5 μL of stock solution of a compound (final concentration 500 μM). […] of incubation system was placed in an Eppendorf tube and incubated for 5 hours at 37° C. in water bath.
Determination of the content of methemoglobin: 60 μL of an incubated sample was taken and lysed with 3.0 mL of 1% Triton X-100. The content of methemoglobin (MetHb) was measured by an ultraviolet-visible spectrophotometer, with the Triton X-100 solution used as blank control. A sample was placed in a cuvette, 1 minute later, the spectrums of the sample in the wavelength range from 500 nm to 700 nm were recorded. The sample was added with 2 mg of potassium ferricyanide, and was allowed to stay stationary for 2 minutes for completely oxidization of ferrous iron in the sample, and standard spectrum of methemoglobin with saturated potassium ferricyanide. The percentage of methemoglobin formation (MetHb %) was obtained by the ratio of absorbance at 630 nm. MetHb %=(A′−AB′)/AM′, wherein, A′ was the total absorbance of the sample at 630 nm, AB′ was the base absorbance of the reduced blood in the sample at 630 nm, and AM′ was the absorbance of oxidized blood with saturated potassium ferricyanide at 630 nm.

[9] = MIC in vitro anti-bacterial experiments, Gram-positive bacteria; format: cell-based; details: lowest MIC reached; read-out: minimum inhibitory concentration against Gram-positive bacteria
From the text: 1. The invention adopts the two-fold agar dilution method recommended by the operating procedure of antimicrobial susceptibility testing set by American Clinical and Laboratory Standards Institute (CLSI) to determine the Minimum Inhibitory Concentration (MIC) of the test samples against the tested strains.

[10] = strain printed MRSA 14-1 (second line of that name, r23, before MRSE 14-2)
[11] = concentration of 30 μM, 72 hours, CCK-8

| Structure (SMILES) | MIC (anti-bacterial activity) ([1]; strain EFA 14-1) [µg/mL] | MIC (anti-bacterial activity) ([1]; strain EFA 14-2) [µg/mL] | MIC (anti-bacterial activity) ([1]; strain EFA 14-3) [µg/mL] | MIC (anti-bacterial activity) ([1]; strain EFA 14-5) [µg/mL] | MIC (anti-bacterial activity) ([2]; strain ECO+ 14-1) [µg/mL] | MIC (anti-bacterial activity) ([2]; strain ECO+ 14-2) [µg/mL] | MIC (anti-bacterial activity) ([2]; strain ECO− 14-1) [µg/mL] | MIC (anti-bacterial activity) ([2]; strain ECO− 14-2) [µg/mL] | MIC (anti-bacterial activity) ([3]; strain MRSA 14-1) [µg/mL] | MIC (anti-bacterial activity) ([3]; strain MRSA 14-2) [µg/mL] | MIC (anti-bacterial activity) ([3]; strain MRSA 14-4) [µg/mL] | MIC (anti-bacterial activity) ([3]; strain MRSA 14-5) [µg/mL] | MIC (anti-bacterial activity) [3, 10] [µg/mL] | MIC (anti-bacterial activity) ([4]; strain MRSE 14-2) [µg/mL] | MIC (anti-bacterial activity) ([4]; strain MRSE 14-3) [µg/mL] | MIC (anti-bacterial activity) ([4]; strain MRSE 14-4) [µg/mL] | MIC (anti-bacterial activity) ([5]; strain MSSA 14-1) [µg/mL] | MIC (anti-bacterial activity) ([5]; strain MSSA 14-2) [µg/mL] | MIC (anti-bacterial activity) ([5]; strain MSSA 14-3) [µg/mL] | MIC (anti-bacterial activity) ([5]; strain MSSA 14-4) [µg/mL] | further results |
| --- | --- | --- | --- | --- | --- | --- | --- | --- | --- | --- | --- | --- | --- | --- | --- | --- | --- | --- | --- | --- | --- |
| CCCC[C@H](CN(O)C=O)C(=O)N1CC2(CC2)C[C@H]1C(=O)Nc1ccc(F)c[n+]1[O-] [Example 2] | 0.25 (≈ 0.592 µM) | 0.5 (≈ 1.18 µM) | 0.5 (≈ 1.18 µM) | 128 (≈ 303 µM) | 1 (≈ 2.37 µM) | 64 (≈ 151 µM) | 128 (≈ 303 µM) | 64 (≈ 151 µM) | 0.25 (≈ 0.592 µM) | 0.25 (≈ 0.592 µM) | 0.125 (≈ 0.296 µM) | 0.125 (≈ 0.296 µM) | 0.03 (≈ 0.071 µM) | 0.06 (≈ 0.142 µM) | 0.06 (≈ 0.142 µM) | 0.125 (≈ 0.296 µM) | 0.125 (≈ 0.296 µM) | 0.125 (≈ 0.296 µM) | 0.125 (≈ 0.296 µM) | 0.125 (≈ 0.296 µM) | MIC ([3]; Staphylococcus aureus, MRSA, range over strains, read-out: minimum inhibitory concentration MIC against methicillin-resistant Staphylococcus (MRSA)): 0.125 to 0.25 µg/mL (≈ 0.296 to 0.592 µM); MIC (anti-bacterial activity) ([6]; strain MSSE 14-1): 0.03 µg/mL (≈ 0.071 µM); MIC (anti-bacterial activity) ([6]; strain MSSE 14-2): 0.125 µg/mL (≈ 0.296 µM); MIC (anti-bacterial activity) ([6]; strain MSSE 14-3): 0.03 µg/mL (≈ 0.071 µM); MIC (anti-bacterial activity) ([6]; strain MSSE 14-4): 0.03 µg/mL (≈ 0.071 µM); inhibition at 30 µM [7, 11]: 2%; MetHb % (n = 3) [8]: 3.32 ± 0.05%; probability of methemoglobin formation in blood compared with the control drugs LBM415 and GSK1322322 [8]: lower probability of methemoglobin formation in blood |
| CCCC[C@H](CN(O)C=O)C(=O)N1CC2(CC2)C[C@H]1C(=O)Nc1ccc(C)c(Nc2nccc(-c3cccnc3)n2)c1 [Example 4] | 0.03 (≈ 0.0525 µM) | 0.015 (≈ 0.0262 µM) | 0.03 (≈ 0.0525 µM) | > 128 | 4 (≈ 7 µM) | > 128 | > 128 | > 128 | 0.015 (≈ 0.0262 µM) | 0.015 (≈ 0.0262 µM) | < 0.008 | < 0.008 | < 0.008 | < 0.008 | < 0.008 | < 0.008 | 0.015 (≈ 0.0262 µM) | 0.015 (≈ 0.0262 µM) | 0.015 (≈ 0.0262 µM) | 0.015 (≈ 0.0262 µM) | MIC (anti-bacterial activity) ([6]; strain MSSE 14-1): 0.015 µg/mL (≈ 0.0262 µM); MIC (anti-bacterial activity) ([6]; strain MSSE 14-2): < 0.008 µg/mL; MIC (anti-bacterial activity) ([6]; strain MSSE 14-3): < 0.008 µg/mL; MIC (anti-bacterial activity) ([6]; strain MSSE 14-4): 0.015 µg/mL (≈ 0.0262 µM); inhibition at 30 µM [7, 11]: 18%; MIC [9]: < 0.008 µg/mL |
| CCCC[C@H](CN(O)C=O)C(=O)N1CC2(CC2)C[C@H]1C(=O)Nc1cccc(Nc2ncccn2)c1 [Example 8] | 0.5 (≈ 1.04 µM) | 1 (≈ 2.08 µM) | 1 (≈ 2.08 µM) | 1 (≈ 2.08 µM) | 1 (≈ 2.08 µM) | 64 (≈ 133 µM) | 128 (≈ 266 µM) | 128 (≈ 266 µM) | 0.25 (≈ 0.52 µM) | 0.25 (≈ 0.52 µM) | 0.25 (≈ 0.52 µM) | 0.125 (≈ 0.26 µM) | 0.125 (≈ 0.26 µM) | 0.25 (≈ 0.52 µM) | 0.06 (≈ 0.125 µM) | 0.25 (≈ 0.52 µM) | 0.25 (≈ 0.52 µM) | 0.25 (≈ 0.52 µM) | 0.25 (≈ 0.52 µM) | 0.125 (≈ 0.26 µM) | MIC (anti-bacterial activity) ([6]; strain MSSE 14-1): 0.125 µg/mL (≈ 0.26 µM); MIC (anti-bacterial activity) ([6]; strain MSSE 14-2): 0.25 µg/mL (≈ 0.52 µM); MIC (anti-bacterial activity) ([6]; strain MSSE 14-3): 0.125 µg/mL (≈ 0.26 µM); MIC (anti-bacterial activity) ([6]; strain MSSE 14-4): 0.25 µg/mL (≈ 0.52 µM); inhibition at 30 µM [7]: 11%; MetHb % (n = 3) [8]: 4.12 ± 0.07%; probability of methemoglobin formation in blood compared with the control drugs LBM415 and GSK1322322 [8]: lower probability of methemoglobin formation in blood |
| CCCC[C@H](CN(O)C=O)C(=O)N1CC2(CC2)C[C@H]1C(=O)Nc1nccc(-c2cccnc2)n1 [Example 9] | 0.5 (≈ 1.07 µM) | 0.5 (≈ 1.07 µM) | 1 (≈ 2.14 µM) | 0.5 (≈ 1.07 µM) | 2 (≈ 4.29 µM) | > 64 | > 64 | > 64 | 2 (≈ 4.29 µM) | 0.5 (≈ 1.07 µM) | 2 (≈ 4.29 µM) | 0.25 (≈ 0.536 µM) | 0.25 (≈ 0.536 µM) | 0.25 (≈ 0.536 µM) | 0.125 (≈ 0.268 µM) | 0.5 (≈ 1.07 µM) | 0.25 (≈ 0.536 µM) | 0.5 (≈ 1.07 µM) | 0.5 (≈ 1.07 µM) | 0.25 (≈ 0.536 µM) | MIC (anti-bacterial activity) ([6]; strain MSSE 14-1): 0.125 µg/mL (≈ 0.268 µM); MIC (anti-bacterial activity) ([6]; strain MSSE 14-2): 0.5 µg/mL (≈ 1.07 µM); MIC (anti-bacterial activity) ([6]; strain MSSE 14-3): 0.25 µg/mL (≈ 0.536 µM); MIC (anti-bacterial activity) ([6]; strain MSSE 14-4): 0.5 µg/mL (≈ 1.07 µM); inhibition at 30 µM [7]: 6%; MetHb % (n = 3) [8]: 1.13 ± 0.06%; probability of methemoglobin formation in blood compared with the control drugs LBM415 and GSK1322322 [8]: lower probability of methemoglobin formation in blood |
